Our source for the GI50 and TGI values is PubChem BioAssay (NCI).

Test systems include HOP-62 NSCLC; U251 CNS; HL-60(TB) leukemia; HOP-92 NSCLC; RXF 393 renal; ACHN renal; DLD-1 colon; NCI-H522 lung; DMS 273 small cell lung; SNB-19 CNS.
Holding throughout (test): NCI tumour cell line growth inhibition, 48 h

Molecules are shown by their SMILES. Several values for one entry are separate records, joined by “and”; a condition that tells them apart may be missing. Equal entries are not always repeated.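 Five compound concentrations were applied to cells in 96-well plates for 48 hours; endpoints were derived by simple linear interpolation of the resulting dose-response curve. GI50 marks 50% less growth. TGI: total growth inhibition.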

With `C[C@@]12CCC(=O)c3coc(c31)C(=O)c1cc3c(cc12)C(=O)C=CC3=O`, the GI50 in the test with HOP-62 NSCLC, with U251 CNS, with HL-60(TB) leukemia, in the test on HOP-92 NSCLC, in the test on RXF 393 renal and in the test with ACHN renal was more than 1 µM throughout. In addition, the GI50 in the test with DLD-1 colon, in the test on NCI-H522 lung, in the test with DMS 273 small cell lung and in the test with SNB-19 CNS was more than 1 µM each time. The TGI was more than 100 µM in the test with HOP-62 NSCLC; > 1 µM and 52.9 µM in the test with U251 CNS; > 1 µM and 5.5 µM in the test on HL-60(TB) leukemia; > 1 µM and 19.6 µM in the test with HOP-92 NSCLC; > 1 µM and 37.1 µM with RXF 393 renal; > 1 µM and 30.3 µM in the test with ACHN renal. Further, the TGI in the test with DLD-1 colon was > 1 µM and 30.5 µM; in the test on NCI-H522 lung, > 1 µM and 22.1 µM; with DMS 273 small cell lung, > 1 µM and 30 µM; with SNB-19 CNS it was more than 100 µM.

For `O=C(c1ccc(Cl)cc1Cl)C1[C@H]2C(=O)N(c3ccc(Cc4ccc(N5C(=O)[C@@H]6ON(c7ccccc7)C(C(=O)c7ccc(Cl)cc7Cl)[C@@H]6C5=O)cc4)cc3)C(=O)[C@H]2ON1c1ccccc1` (stereo partly specified), the TGI in the test with HOP-62 NSCLC, with U251 CNS, in the test on HL-60(TB) leukemia, with RXF 393 renal, with ACHN renal and with DLD-1 colon was more than 50 µM throughout. The TGI with NCI-H522 lung, in the test on DMS 273 small cell lung and with SNB-19 CNS was more than 50 µM each time.

For the compound `COc1c(O)c2c3c(cc(C)cc3c1C(C)C)OC2`, the TGI in the test on U251 CNS, in the test with HL-60(TB) leukemia, with HOP-92 NSCLC, in the test on RXF 393 renal, in the test on ACHN renal and in the test on DLD-1 colon was more than 100 µM in each case. Also, the TGI with NCI-H522 lung, in the test on DMS 273 small cell lung and in the test on SNB-19 CNS was more than 100 µM throughout.

On to `COc1cc2ccnc3c2c(c1OC)-c1coc(SC)c1-3`, for which the TGI was more than 100 µM in the test with HOP-62 NSCLC; more than 100 µM in the test with U251 CNS; more than 100 µM in the test with HL-60(TB) leukemia; more than 100 µM with HOP-92 NSCLC; 52.1 µM with RXF 393 renal; more than 100 µM with ACHN renal. The TGI in the test on DLD-1 colon, with NCI-H522 lung, with DMS 273 small cell lung and with SNB-19 CNS was more than 100 µM each time.

In the case of `COc1cc2c[n+](C)c3c4cc(OC)c(OC(C)C)cc4ccc3c2cc1OC`, the TGI with HOP-62 NSCLC is more than 100 µM; with U251 CNS it was more than 100 µM; in the test on HL-60(TB) leukemia it was 91.9 µM; in the test with HOP-92 NSCLC it was more than 100 µM; in the test with RXF 393 renal, more than 100 µM; with ACHN renal, more than 100 µM. Also, the TGI in the test on DLD-1 colon was more than 100 µM; with NCI-H522 lung it was 69.3 µM; in the test with DMS 273 small cell lung, 97.6 µM; with SNB-19 CNS, more than 100 µM.

With `O=[N+]([O-])c1ccc(-n2nnc(C3=NCCN3)c2-c2ccccc2)cc1`, the TGI in the test on HOP-62 NSCLC, in the test with U251 CNS, with HL-60(TB) leukemia, in the test with HOP-92 NSCLC, in the test on RXF 393 renal and in the test with ACHN renal was more than 100 µM each time. For the same compound, the TGI in the test on DLD-1 colon, with NCI-H522 lung, in the test on DMS 273 small cell lung and in the test with SNB-19 CNS was more than 100 µM in each case.

With `Cc1cc(NC(=O)NC(=O)c2ccccc2NC(=O)C(C)N)ccc1Oc1ncc(Br)cn1` (stereo unspecified), the TGI in the test on HOP-62 NSCLC is 4.3 µM; in the test with U251 CNS it was 24.4 µM; with HL-60(TB) leukemia it was 0.558 µM; in the test on HOP-92 NSCLC it was 25.6 µM; in the test with RXF 393 renal it was 0.776 µM; with ACHN renal, 27.4 µM. The TGI is more than 100 µM in the test on DLD-1 colon, 0.334 µM in the test with NCI-H522 lung, more than 32.7 µM in the test on DMS 273 small cell lung and 56.3 µM in the test with SNB-19 CNS.

As for `C=C1CC2OC(=O)C(=C)C2C(O)C2C(=C)CCC12` (stereo unspecified), the TGI in the test with U251 CNS amounted to 30.8 µM; in the test with HL-60(TB) leukemia, 6.32 µM; with HOP-92 NSCLC, 5.84 µM; in the test with RXF 393 renal, 17.7 µM; in the test with ACHN renal it was 21.2 µM; with DLD-1 colon it was 30.9 µM. The results for the TGI in the test on DMS 273 small cell lung and in the test on SNB-19 CNS were 22.2 µM and 30.8 µM, respectively.

On to `Cc1nc(Nc2ccccc2)sc1C(=O)CC(=O)C(=O)Nc1c(C(C)C)cccc1C(C)C`, for which the TGI in the test with HOP-62 NSCLC, with U251 CNS, in the test with HL-60(TB) leukemia, in the test with HOP-92 NSCLC, in the test with RXF 393 renal and in the test with ACHN renal was more than 100 µM throughout. Besides, the TGI in the test with DLD-1 colon, with NCI-H522 lung, with DMS 273 small cell lung and in the test on SNB-19 CNS was more than 100 µM throughout.

Take `Cc1ccccc1C1OC(=O)c2ccc3ccccc3c21` (stereo unspecified): the TGI in the test with HOP-62 NSCLC came to 5.35 µM; with U251 CNS it was 13.3 µM; in the test on HL-60(TB) leukemia it was 8.01 µM; in the test with HOP-92 NSCLC, 49.9 µM; in the test on RXF 393 renal it was 6.95 µM; in the test with ACHN renal, 28.6 µM. Moreover, the TGI was 16.8 µM in the test on DLD-1 colon, 4.89 µM with NCI-H522 lung, 12.4 µM in the test with DMS 273 small cell lung and more than 91.5 µM with SNB-19 CNS.

Consider `CCOC(=O)CC[C@H](NC(=O)c1nc[nH]c1[N+](=O)[O-])C(=O)OCC`, for which the TGI with HOP-62 NSCLC, in the test with U251 CNS, in the test with HL-60(TB) leukemia, with HOP-92 NSCLC, in the test with RXF 393 renal and in the test with ACHN renal was more than 100 µM throughout. The TGI with DLD-1 colon, in the test with NCI-H522 lung, in the test on DMS 273 small cell lung and in the test on SNB-19 CNS was more than 100 µM each time.

Turning to `O=c1cnn(C2OC(CO)C(O)C2O)c(=S)[nH]1` (stereo unspecified), the TGI in the test with HOP-62 NSCLC, in the test on U251 CNS, in the test on HL-60(TB) leukemia, in the test with HOP-92 NSCLC, in the test with RXF 393 renal and with ACHN renal was more than 100 µM throughout. For the same compound, the TGI in the test on DLD-1 colon is more than 100 µM; in the test with NCI-H522 lung it was more than 55.4 µM; in the test with DMS 273 small cell lung, more than 100 µM; with SNB-19 CNS it was more than 100 µM.
